Where two headings read alike, the source gives them in different places.
Assays:
[1] = CellTiter-Glo cell viability assay (cytotoxicity), MOLT4; type: cell-based; conditions: human, MOLT4, 72 h treatment, read-out: In vitro cytotoxicity EC50 ± SD MOLT4
Experimental: (§1) Cells were obtained from the following sources: HEK293 (ATCC, cat # CRL-1573), MOLT-4 (ATCC, cat # CRL-1582). Cell lines were routinely tested for Mycoplasma contamination with the MycoAlert PLUS Mycoplasma Detection Kit (Lonza Bioscience, cat # LT07) according to manufacturer protocol. Cell number and cell viability were measured using the Countess Automated Cell Counter (Invitrogen) using Trypan blue stain (Invitrogen, cat # T10282). Human embryonic kidney HEK293 cells were maintained in DMEM with high glucose and GlutaMAX (Gibco, cat # 10566016) supplemented with 10% HyClone Characterized Fetal Bovine Serum (Cytiva, cat # SH30071.03), and 100 µ mL^−1 Penicillin-Streptomycin (Gibco, cat # 15140122). Human T lymphoblast MOLT-4 cells were maintained in RPMI 1640 Medium (Gibco, cat # 11875093) supplemented with 10% HyClone Characterized Fetal Bovine Serum (Cytiva, cat # SH30071.03), 100 µ mL^−1 Penicillin-Streptomycin (Gibco, cat # 15140122), and 10 mM HEPES (Gibco, 15630080). Cells were cultured in incubators maintained at 37 °C with 5% CO2 and 95% relative humidity.
(§2) The CTG assay (Promega, cat # G7572) was used to quantify cellular ATP according to manufacturer protocols. The Multidrop Combi liquid dispenser (ThermoFisher) was used to dispense 4 µL of cells into white 1536-well microplates (Corning, cat # 7464) at a density of 1500 cells/well. Plated cells were incubated overnight. (−)-Premarineosin A (3) and derivatives were transferred into respective wells of each plate at 25 nL/well with the mosquito (SPT Labtech) in 16-pt, 1:3 titrations for a final concentration of 125 µM–8.71 pM for compounds with a high concentration of 20 mM, or 62.5 µM–4.36 pM for compounds with a high concentration of 10 mM. Controls were transferred into respective wells of each plate at 25 nL/well with the mosquito with a 16-pt, 1:2 titration of Digitonin for a final concentration of 125 µM–3.81 nM. The final concentration of DMSO was 0.58%. Cells were incubated for either 24, 48, and 72 h, after which point 3 µL/well of CTG was transferred to each plate with the BioRaptr 2.0 FRD (LetsGoRobotics). Plates were incubated for 10 min in the dark at ambient temperature for 10 min. Luminescence was measured using a ViewLux 1430Ultra HTS (PerkinElmer) with the following optical settings: exposure = 1 s, gain = high, speed = slow, binning = 2X. Dimethyl sulfoxide (“DMSO”; AMRESCO, cat # RGE-3070) was used as a vehicle control. Digitonin (Sigma-Aldrich, cat # D141) was prepared as a 20 mM stock solution in DMSO and stored at −30 °C for use as a cytotoxicity control. (−)-Premarineosin A (3) and derivatives were prepared at either 10 mM or 20 mM stock solutions in DMSO. Data were normalized to 125 µM Digitonin as −100% inhibition in a row-wise manner across the plate. Normalization was performed in Excel (Microsoft) and Concentration Response Curves (CRCs) were plotted in GraphPad Prism (GraphPad Software, Inc.) with error bars representing the standard deviation of four replicate wells (Supplementary Fig. 9).

[2] = tested on: Plasmodium falciparum 3D7 (chloroquine-sensitive); assay: In vitro antimalarial growth inhibition assay (SYBR green), 3D7; type: cell-based; conditions: for EC50: Plasmodium falciparum
Experimental: The antimalarial growth inhibition assay was performed as described previously. […] Tested compounds were threefold diluted in triplicate with concentrations ranging from 20 – 0.001 µM/10 – 0.0005 µM. The parasites were incubated with the drug at 37 °C under mixed gas (5% O2, 5% CO2, and 90% N2) conditions for 48 h. DNA was released from the cultured parasite and stained with SYBR green dye. The plate was placed in the dark with gentle agitation for 1 h, and signals were read in a FLUOstar OPTIMA reader (BMG Labtech, Germany). Data from the microplate reader were analyzed as described previously[68] and plotted using Prism 9.0 software (GraphPad Software, Inc., San Diego, CA). Each in vitro experiment was performed in triplicate wells and repeated twice. Response Curves (CRCs) were plotted in GraphPad Prism (GraphPad Software, Inc.) with error bars representing the standard deviation of three replicate wells (Supplementary Fig. 10).

[3] = CellTiter-Glo cell viability assay (cytotoxicity), HEK293; type: cell-based; conditions: human, HEK293, 72 h treatment, read-out: In vitro cytotoxicity EC50 ± SD HEK293
Experimental: as §1, §2

[4] = tested on: Plasmodium falciparum Dd2 (chloroquine-resistant); assay: In vitro antimalarial growth inhibition assay (SYBR green), Dd2; type: cell-based; conditions: for EC50: Plasmodium falciparum, read-out: In vitro activity EC50 ± SD P. falciparum Dd2; for Fold more potent than chloroquine, Dd2: Dd2, versus chloroquine
Experimental: The antimalarial growth inhibition assay was performed as described previously. Briefly, the Plasmodium falciparum Dd2 and 3D7 parasites were diluted to 0.75% parasitemia with 2% hematocrit, and 50 μL diluted parasites were added to each well in a 96-well plate containing 50 μL of properly diluted drugs. Tested compounds were threefold diluted in triplicate with concentrations ranging from 20 – 0.001 µM/10 – 0.0005 µM. The parasites were incubated with the drug at 37 °C under mixed gas (5% O2, 5% CO2, and 90% N2) conditions for 48 h. DNA was released from the cultured parasite and stained with SYBR green dye. The plate was placed in the dark with gentle agitation for 1 h, and signals were read in a FLUOstar OPTIMA reader (BMG Labtech, Germany). Data from the microplate reader were analyzed as described previously[68] and plotted using Prism 9.0 software (GraphPad Software, Inc., San Diego, CA). Each in vitro experiment was performed in triplicate wells and repeated twice. Response Curves (CRCs) were plotted in GraphPad Prism (GraphPad Software, Inc.) with error bars representing the standard deviation of three replicate wells (Supplementary Fig. 10).

Plasmodium = tested on: Plasmodium; design: method as in PMID 24575817, PMID 19007176; conditions: cited from earlier work
[5] = MOLT-4 T-cell leukemia (T lymphoblast) cells
[6] = 3D7 chloroquine-sensitive, 48 h treatment
[7] = 3D7 chloroquine-sensitive, 48 h treatment, read-out: In vitro activity EC50 ± SD P. falciparum 3D7
[8] = Dd2 chloroquine-resistant, 48 h treatment
[9] = 3D7, 48 h, read-out: In vitro activity EC50 ± SD P. falciparum 3D7

For `COC1=CC(c2ccc[nH]2)=N[C@@]12O[C@H](C)C[C@H]1CCCCCCCc3[nH]c(cc3C(C)(O)C(F)(F)F)[C@@H]12` (stereo partly drawn) [compound 7, 12-trifluoropropanol premarineosin A], the EC50 at 72 h [1, 5] was 1490 ± 388 nM, the “In vitro activity EC50 ± SD P. falciparum 3D7” value [2, 6] was “sub-micromolar” and the EC50 [2, 7] was 203 ± 10 nM. The EC50 at 72 h ([3]; HEK293 embryonic kidney cells) was 4.21 ± 0.481 µM, the “In vitro activity EC50 ± SD P. falciparum Dd2” value [4, 8] was “sub-micromolar” and the EC50 [4, 8] was 87 ± 15 nM.

For `COC1=CC(c2ccc[nH]2)=N[C@@]12O[C@H](C)C[C@H]1CCCCCCCc3[nH]c(cc3C=O)[C@@H]12` [compound 8, 12-formyl premarineosin A], the EC50 at 72 h [1] was 6630 ± 836 nM, the “In vitro activity EC50 ± SD P. falciparum 3D7” value [2, 6] was “sub-micromolar” and the EC50 [2, 7] was 165 ± 55 nM. For the same compound, the EC50 at 72 h [3] was 7.79 ± 1.62 µM, the “In vitro activity EC50 ± SD P. falciparum Dd2” value [4, 8] was “sub-micromolar” and the EC50 [4, 8] was 222 ± 53 nM.

For `COC1=CC(c2ccc[nH]2)=N[C@@]12O[C@H](C)C[C@H]1CCCCCCCc3[nH]c(cc3Br)[C@@H]12` [compound 12, 12-bromo premarineosin A], the EC50 at 72 h [1] was 480 ± 84 nM, the EC50 [2, 9] was 2 nM and the EC50 ([2]; 3D7, read-out: EC50 against P. falciparum) was < 5 nM. For the same compound, the EC50 at 72 h [3] was 1.63 ± 0.184 µM, the “Fold more potent than chloroquine, Dd2” value [4] was 17 fold and the EC50 ([4]; DD2, 48 h) was 22 ± 11 nM.

With `COC1=CC(c2ccc[nH]2)=N[C@@]12O[C@H](C)C[C@H]1CCCCCCCc3[nH]c(cc3C(C)=O)[C@@H]12` [compound 9, 12-acetyl premarineosin A] the EC50 at 72 h [1, 5] was 3670 ± 1010 nM, the “In vitro activity EC50 ± SD P. falciparum 3D7” value [2, 6] was “sub-micromolar” and the EC50 [2, 7] was 178 ± 25 nM. For the same compound, the EC50 at 72 h ([3]; HEK293 embryonic kidney cells) was 6.59 ± 3.02 µM, the “In vitro activity EC50 ± SD P. falciparum Dd2” value [4, 8] was “sub-micromolar” and the EC50 [4, 8] was 180 ± 14 nM.

With `COC1=CC(c2ccc[nH]2)=N[C@@]12O[C@H](C)C[C@H]1CCCCCCCc3[nH]c(cc3CO)[C@@H]12` [compound 10, 12-hydroxymethyl-premarineosin A] the EC50 at 72 h [1] was 19700 ± 1220 nM, the EC50 [2, 7] was 1230 ± 530 nM and the EC50 at 72 h [3] was 18.4 ± 6.7 µM. The EC50 [4, 8] was 704 ± 304 nM.

With `COC1=CC(c2ccc[nH]2)=N[C@@]12O[C@H](C)C[C@H]1CCCCCCCc3[nH]c(cc3Cc3cc4[nH]c3CCCCCCC[C@@H]3C[C@@H](C)O[C@@]5(N=C(c6ccc[nH]6)C=C5OC)[C@@H]43)[C@@H]12` [compound 5, Methylene-bridged premarineosin A] the EC50 at 72 h [1] was 1160 ± 94 nM, the EC50 [2, 7] was 1390 ± 265 nM and the EC50 at 72 h [3] was 8.31 ± 1.46 µM. It also gave an EC50 [4, 8] of 548 ± 76 nM.

`C[C@H]1[C@H](OC(=O)CCC(=O)O)O[C@@H]2O[C@@]3(C)CC[C@H]4[C@H](C)CC[C@@H]1[C@@]24OO3` [Artesunate, reference compound] showed an EC50 [2, 7] of 24 ± 6 nM and an EC50 [4, 8] of 8 ± 2 nM.

In the case of `CCN(CC)CCCC(C)Nc1ccnc2cc(Cl)ccc12` (stereo not drawn) [Chloroquine, reference compound], the EC50 [2, 9] is reported as 41 ± 3 nM and the EC50 ([4]; DD2, 48 h) is reported as 382 ± 22 nM.

In the case of `COC1=CC(c2ccc[nH]2)=N[C@@]12O[C@H](C)C[C@H]1CCCCCCCc3ccc([nH]3)[C@@H]12` [compound 3, (−)-premarineosin A], the EC50 at 72 h [1] is reported as 1060 ± 336 nM, the “Fold more potent than artesunate, 3D7” value ([2]; 3D7, versus artesunate) is reported as 6 fold and the “Fold more potent than chloroquine, 3D7” value ([2]; 3D7, versus chloroquine) is reported as “over 10 fold”. For the same compound, the EC50 [2, 7] was 4 ± 0.1 nM, the EC50 at 72 h [3] was 1.47 ± 0.427 µM and the “Antimalarial activity in vitro” value (Plasmodium) was “single-digit nanomolar”. For the same compound, the “Fold more potent than artesunate, Dd2” value ([4]; Dd2, versus artesunate) was 8 fold, the “Fold more potent than chloroquine, Dd2” value [4] was > 350 fold and the EC50 [4, 8] was 1 ± 0.7 nM.

Work on `COC1=CC(c2ccc[nH]2)=N[C@@]12O[C@H](C)C[C@H]1CCCCCCCc3[nH]c(cc3C(C)(C)c3cc4[nH]c3CCCCCCC[C@@H]3C[C@@H](C)O[C@@]5(N=C(c6ccc[nH]6)C=C5OC)[C@@H]43)[C@@H]12` [compound 4, gem-dimethyl-bridged premarineosin A] yielded an EC50 at 72 h [1] of 2260 ± 777 nM, an EC50 [2, 9] of 1890 ± 243 nM and an EC50 at 72 h [3] of 8.29 ± 1.66 µM. The EC50 ([4]; DD2, 48 h) was 1240 ± 168 nM.

With `COC1=CC(c2ccc(Br)[nH]2)=N[C@@]12O[C@H](C)C[C@H]1CCCCCCCc3ccc([nH]3)[C@@H]12` [compound 11, 1-bromo premarineosin A] the EC50 at 72 h [1] was 1330 ± 691 nM, the EC50 [2, 9] was 473 ± 113 nM and the EC50 at 72 h [3] was 19.2 ± 1.73 µM. The EC50 ([4]; DD2, 48 h) was 259 ± 24 nM.

For `COC1=CC(c2ccc[nH]2)=N[C@@]12O[C@H](C)C[C@H]1CCCCCCCc3[nH]c(cc3C(C)(c3cc4[nH]c3CCCCCCC[C@@H]3C[C@@H](C)O[C@@]5(N=C(c6ccc[nH]6)C=C5OC)[C@@H]43)C(F)(F)F)[C@@H]12` [compound 6, Trifluoromethyl-bridged premarineosin A], the EC50 at 72 h [1, 5] was 6510 ± 2740 nM, the EC50 [2, 7] was 5070 ± 1000 nM and the EC50 at 72 h ([3]; HEK293 embryonic kidney cells) was 11 ± 2.15 µM. The EC50 [4, 8] was 2320 ± 448 nM.

Reference: paper PMC12680612, “Metabolic engineering and late-stage functionalization expand the chemical space of the antimalarial premarineosin A” (Communications Chemistry, 2025)
